From ChEMBL document CHEMBL1145259, “Arylacetamide kappa opioid receptor agonists with reduced cytochrome P450 2D6 inhibitory activity” (Bioorg Med Chem Lett, 2005)

What was measured:
Cytochrome P450 2D6 = Cytochrome P450 2D6 (Homo sapiens, UniProt P10635); experiment: Inhibition of cytochrome P450 2D6 was determined using MAMC (7-methoxy-4-aminomethyl-coumarin) as substrate; type: ADME
Mu-type opioid receptor [1] = target: T1, Mu-type opioid receptor (Homo sapiens, UniProt P35372); experiment: Inhibitory constant against human Opioid receptor mu 1 using [3H]diprenorphine as radio ligand
[2] = target: T2, Delta-type opioid receptor (Homo sapiens, UniProt P41143); experiment: Inhibitory constant against human Opioid receptor delta 1 using [3H]diprenorphine as radio ligand
CYP2D6 = CYP2D6 (Homo sapiens, UniProt P10635); experiment: Inhibition of cytochrome P450 2D6 activity was measured by the inhibition of HAMC production at the concentration of 10 uM; type: ADME
[3] = target: T2, Delta-type opioid receptor; experiment: Percent inhibition against human Opioid receptor delta 1 using [3H]diprenorphine as radio ligand; settings: concentration not given here
Mu-type opioid receptor [4] = target: T1, Mu-type opioid receptor; experiment: Percent inhibition against human Opioid receptor mu 1 using [3H]diprenorphine as radio ligand; set-up: concentration or dose not given beside the values; settings: concentration not given here
[5] = target: T2, Delta-type opioid receptor; experiment: Percent inhibition constant against human Opioid receptor delta 1 using [3H]diprenorphine as radio ligand; settings: concentration not given here

T2 sequence (P41143 whole entry): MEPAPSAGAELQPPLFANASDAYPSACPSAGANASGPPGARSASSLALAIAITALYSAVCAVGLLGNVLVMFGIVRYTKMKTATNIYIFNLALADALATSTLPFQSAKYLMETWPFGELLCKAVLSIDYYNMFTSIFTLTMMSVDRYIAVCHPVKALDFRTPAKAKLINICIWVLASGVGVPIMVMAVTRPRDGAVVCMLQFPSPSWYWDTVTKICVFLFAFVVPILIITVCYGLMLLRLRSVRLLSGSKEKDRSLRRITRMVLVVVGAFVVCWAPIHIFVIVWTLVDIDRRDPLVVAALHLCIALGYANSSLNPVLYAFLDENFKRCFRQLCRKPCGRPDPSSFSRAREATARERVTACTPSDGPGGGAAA
Chain of CYP2D6 (P10635 whole entry): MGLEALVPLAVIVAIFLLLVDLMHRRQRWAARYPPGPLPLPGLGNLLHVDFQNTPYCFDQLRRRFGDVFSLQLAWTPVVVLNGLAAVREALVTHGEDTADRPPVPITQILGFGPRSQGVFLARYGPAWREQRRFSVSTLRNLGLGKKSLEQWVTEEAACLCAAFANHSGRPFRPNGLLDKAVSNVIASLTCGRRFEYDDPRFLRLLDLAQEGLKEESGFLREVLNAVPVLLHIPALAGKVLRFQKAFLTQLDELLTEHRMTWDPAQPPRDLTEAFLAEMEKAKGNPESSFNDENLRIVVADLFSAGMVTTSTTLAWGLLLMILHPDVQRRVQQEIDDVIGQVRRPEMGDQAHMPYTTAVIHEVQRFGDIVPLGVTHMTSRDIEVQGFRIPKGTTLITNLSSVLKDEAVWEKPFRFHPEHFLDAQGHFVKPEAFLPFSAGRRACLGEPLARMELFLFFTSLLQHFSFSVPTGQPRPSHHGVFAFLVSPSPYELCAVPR
Chain of Cytochrome P450 2D6 (P10635 whole entry): as above
T1 sequence (P35372 whole entry): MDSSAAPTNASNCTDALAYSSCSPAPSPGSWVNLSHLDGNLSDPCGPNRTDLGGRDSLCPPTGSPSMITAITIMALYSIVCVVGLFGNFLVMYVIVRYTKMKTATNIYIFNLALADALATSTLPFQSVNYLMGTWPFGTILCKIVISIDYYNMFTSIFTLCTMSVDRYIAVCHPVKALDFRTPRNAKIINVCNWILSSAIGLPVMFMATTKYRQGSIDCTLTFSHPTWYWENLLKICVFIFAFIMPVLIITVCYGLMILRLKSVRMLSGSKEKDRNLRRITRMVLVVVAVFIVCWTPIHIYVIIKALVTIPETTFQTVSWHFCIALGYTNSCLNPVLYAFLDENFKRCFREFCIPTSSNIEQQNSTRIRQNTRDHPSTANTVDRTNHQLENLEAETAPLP

SMILES | IC50 (Cytochrome P450 2D6) | Ki (Mu-type opioid receptor [1]) | Ki [2] | other results
CN(C(=O)Cc1ccccc1)[C@H](CN1CCCC1)c1ccccc1 | 0.046 µM |  |  | 
CN(C(=O)Cc1ccc2c(c1)CN(S(C)(=O)=O)C2)[C@H](CN1CCCC1)c1ccccc1 | 1.04 µM | 0.074 µM | 1.5 µM | 
CCCS(=O)(=O)NCc1ccc(CC(=O)N(C)[C@H](CN2CC[C@H](O)C2)c2ccccc2)cc1 |  | 1.05 µM | 0.124 µM | inhibition at 10 µM (CYP2D6): 27%
CC(=O)NCc1cccc(CC(=O)N(C)[C@H](CN2CCCC2)c2ccccc2)c1 | 0.6 µM |  |  | inhibition [3]: 15%; inhibition (Mu-type opioid receptor [4]): 21%
CN(C(=O)Cc1ccc(CNS(=O)(=O)Cc2ccccc2)cc1)[C@H](CN1CC[C@H](O)C1)c1ccccc1 | 5.7 µM |  | 0.173 µM | 
CN(C(=O)Cc1ccc(CCCNS(C)(=O)=O)cc1)[C@H](CN1CC[C@H](O)C1)c1ccccc1 |  |  |  | inhibition at 10 µM (CYP2D6): 46%
CN(C(=O)Cc1cccc(CN)c1)[C@H](CN1CCCC1)c1ccccc1 | 0.107 µM | 2.3 µM |  | inhibition [3]: 1.4%
CN(C(=O)Cc1ccc(CNS(=O)(=O)c2ccccc2)cc1)[C@H](CN1CC[C@H](O)C1)c1ccccc1 | 4.34 µM |  |  | 
CC(=O)NCc1ccc(CC(=O)N(C)[C@H](CN2CCCC2)c2ccccc2)cc1 | 1.11 µM |  |  | inhibition [3]: 0%; inhibition (Mu-type opioid receptor [4]): 26%
CN(C(=O)Cc1ccccc1CN)[C@H](CN1CCCC1)c1ccccc1 | 0.018 µM |  |  | inhibition [5]: 37%; inhibition (Mu-type opioid receptor [4]): 29%
CC(=O)NCc1ccccc1CC(=O)N(C)[C@H](CN1CCCC1)c1ccccc1 | 0.035 µM | 1.24 µM | 0.9 µM | 
CC(C)S(=O)(=O)NCc1ccc(CC(=O)N(C)[C@H](CN2CC[C@H](O)C2)c2ccccc2)cc1 |  |  |  | inhibition at 10 µM (CYP2D6): 27%
CN(C(=O)Cc1ccc(CNS(C)(=O)=O)cc1)[C@H](CN1CCCC1)c1ccccc1 |  | 0.44 µM | 1.13 µM | inhibition at 10 µM (CYP2D6): 45%
CN(C(=O)Cc1ccc(CNS(=O)(=O)Cc2cccs2)cc1)[C@H](CN1CC[C@H](O)C1)c1ccccc1 | 4.78 µM | 1.06 µM | 0.055 µM | 
CN(C(=O)Cc1ccc(CCNS(C)(=O)=O)cc1)[C@H](CN1CC[C@H](O)C1)c1ccccc1 |  |  | 0.107 µM | inhibition at 10 µM (CYP2D6): 48%
CN(C(=O)Cc1cccc(CNS(C)(=O)=O)c1)[C@H](CN1CCCC1)c1ccccc1 | 1.82 µM |  |  | 
Cc1ccc(S(=O)(=O)NCc2ccc(CC(=O)N(C)[C@H](CN3CC[C@H](O)C3)c3ccccc3)cc2)cc1 | 5.65 µM |  | 0.027 µM | 
CNC(=O)NCc1ccc(CC(=O)N(C)[C@H](CN2CCCC2)c2ccccc2)cc1 | 1.22 µM |  | 1.3 µM | inhibition (Mu-type opioid receptor [4]): 43%
CCCCS(=O)(=O)NCc1ccc(CC(=O)N(C)[C@H](CN2CC[C@H](O)C2)c2ccccc2)cc1 | 7.89 µM | 1.05 µM | 0.167 µM | 
CN(C(=O)Cc1ccc(CN)cc1)[C@H](CN1CCCC1)c1ccccc1 | 0.326 µM |  |  | inhibition [3]: 17%; inhibition (Mu-type opioid receptor [4]): 41%
CN(C(=O)Cc1ccc(NS(C)(=O)=O)cc1)[C@H](CN1CC[C@H](O)C1)c1ccccc1 | 5.53 µM | 0.105 µM | 0.177 µM | 
CN(C(=O)Cc1ccc(Cl)c(Cl)c1)[C@H](CN1CCCC1)c1ccccc1 [ICI-199,441] | 0.026 µM |  |  | 
CN(C(=O)Cc1ccc(CNS(C)(=O)=O)cc1)[C@H](CN1CC[C@H](O)C1)c1ccccc1 |  | 0.151 µM | 0.167 µM | inhibition at 10 µM (CYP2D6): 25%
CN(C(=O)Cc1ccc(CNS(=O)(=O)c2ccc(F)cc2)cc1)[C@H](CN1CC[C@H](O)C1)c1ccccc1 | 5.79 µM | 1.08 µM | 0.063 µM | 
CCS(=O)(=O)NCc1ccc(CC(=O)N(C)[C@H](CN2CC[C@H](O)C2)c2ccccc2)cc1 |  | 1.03 µM |  | inhibition at 10 µM (CYP2D6): 31%
CN(C(=O)Cc1ccccc1CNS(C)(=O)=O)[C@H](CN1CCCC1)c1ccccc1 | 0.295 µM | 0.57 µM | 0.898 µM | 
